# According to patent publication US20260069539A1, “LIPIDOID COMPOUNDS AND RELATED COMPOSITIONS AND USES” (Poseida Therapeutics, Inc., priority 2023, published 2026):
# Tests used:
# [1] = Body weight change / body weight loss 24 hours post-administration of LNP; type: in vivo, BALB/C mice
# Method: In addition, the body weight of mice treated with LNP compositions of the present disclosure prepared as described in Example 77 was assessed prior to intravenous administration and 24 hours post-administration and the body weights at baseline and post-treatment were compared.
# In addition, the body weight of mice treated with LNP compositions of the present disclosure was assessed prior to intravenous administration and 24 hours post-administration and the body weights at baseline and post-treatment were compared.
# Body weight loss (BWL) measurements were taken at 24 hrs post administration and luciferase expression was measured by whole body luminescence imaging (BLI) at 48 hours post-administration.
# (§1) Blood was drawn from control and treated mice 4 hrs post-administration for cytokine analysis, body weight loss (BWL) measurements were taken at 24 hrs post administration and luciferase expression was measured by whole body luminescence imaging (BLI) at 48 hours post-administration.
# [2] = tested on: liver cells; assay: In vivo LNP delivery of DNA encoding firefly luciferase, bioluminescent imaging (BLI) at 48 hr; parameters: species or system BALB/C mice; settings: for Total Flux: Example 103, 0.5 mg/kg DNA intravenous, BLI at 48 hr; for Mean Luciferase Flux: DNA encoding firefly luciferase, 48 hr
# Method: Adult BALB/C mice (n=3) were administered 0.5 mg/kg of DNA encoding firefly luciferase (Nature Technology Corp) formulated in a LNP composition listed in Table 4. One group of mice was treated with vehicle (PBS, Thermo Fisher Scientific, USA) as a negative control.
# (§2) The location and extent of luciferase expression in treated and control mice were determined at 48 hr for DNA delivery by bioluminescent imaging (BLI) of anesthetized mice using an IVIS Lumina in vivo imaging system (Perkin Elmer) according to the manufacturer's instructions. Briefly, mice were anesthetized using isoflurane in oxygen, and placed supine on a heated stage. Mice were then administered D-luciferin (Perkin-Elmer #122799) IP, and BLI was performed.
# as §2, with “DNA” for “DNA delivery”, “performed. […]” for “performed.”
# Body weight loss (BWL) measurements were taken at 24 hrs post administration and luciferase expression was measured by whole body luminescence imaging (BLI) at 48 hours post-administration. […]
# Luciferase expression was measured by whole body luminescence imaging (BLI) at 48 hours post-administration.
# [3] = tested on: liver cells; assay: In vivo LNP delivery of fLuciferase mRNA, bioluminescent imaging (BLI) at 4 hr; parameters: species or system BALB/C mice; settings: for Mean Luciferase Flux: 0.5 mg/kg fLuc mRNA i.v., 4 hr
# Method: Adult female BALB/C mice (n=3/group) were intravenously administered 0.5 mg/kg of 5′-CleanCap—fLuciferase mRNA (TriLink Biotech) formulated with the LNP compositions shown in Table 6. One group of mice was treated with vehicle (PBS, Thermo Fisher Scientific, USA) as a negative control.
# as §2, with “determined at 4 hr for mRNA and 48 hr” for “determined at 48 hr”, “for DNA by bioluminescent” for “for DNA delivery by bioluminescent”
# as §2, with “4” for “48”, “hr” for “hr for DNA delivery”
# as §2, with “4” for “48”, “hr” for “hr for DNA delivery”
# The location and extent of luciferase expression in treated and control mice were determined at 4 hr by bioluminescent imaging (BLI) of anesthetized mice using an IVIS Lumina in vivo imaging system (Perkin Elmer) according to the manufacturer's instructions.
# Briefly, mice were anesthetized using isoflurane in oxygen, and placed supine on a heated stage. Mice were then administered D-luciferin (Perkin-Elmer #122799) IP, and BLI was performed.
# as §2, with “4” for “48”, “hr” for “hr for DNA delivery”
# [4] = tested on: proinflammatory cytokines IL-6, INF-G, TNF-α, MCP-1, MIP-1a/MIP-1b; assay: Serum proinflammatory cytokine levels (ELISA) 4 hours after LNP administration; type: in vivo, BALB/C mice; settings: 0.5 mg/kg fLuc mRNA i.v., serum at 4 hours
# Method: The levels of five proinflammatory cytokines present in serum were evaluated at 4 hours after LNP administration for each of the tested concentrations. Briefly, serum samples were prepared as described for liver enzyme analysis and the serum concentration of each cytokine was determined using commercially available ELISA kits (e.g., R&D Systems Quantikine ELISA kits). The levels of the proinflammatory cytokines interleukin-6 (IL-6), interferon gamma (INF-G), tumor necrosis factor alpha (TNF-α), monocyte chemoattractant protein-1 (MCP-1), macrophage inflammatory protein-1 alpha (MIP-1a) in mice treated with LNPs of the present disclosure compared to vehicle treated mice at 4 hours are shown in Table 18.
# (§3) The levels of five proinflammatory cytokines present in serum were evaluated at 4 hours after LNP administration as described in Example 81. The levels of the proinflammatory cytokines interleukin-6 (IL-6), interferon gamma (INF-G), tumor necrosis factor alpha (TNF-a), monocyte chemoattractant protein-1 (MCP-1), macrophage inflammatory protein-1 beta (MIP-1b) in mice treated with LNPs of the present disclosure are shown in Table 35.
# as §3, with “38 and Table 39.” for “35.”
# as §3, with “(TNF-α),” for “(TNF-a),”, “44.” for “35.”
# as §1
# [5] = tested on: pcsk9 protein; assay: Serum Pcsk9 ELISA 7 days after LNP delivery of Cas-CLOVER mRNA and pcsk9 gRNAs (in vivo gene editing); parameters: species or system mouse; settings: serum 7 days
# Method: In two separate experiments, each group of adult female BALB/C mice (n=2/group) was intravenously co-administered mRNA encoding 5′-CleanCap-5MeC-Cas-CLOVER (SEQ ID NO: 5) and a pair of gRNAs (SEQ ID NOs: 6 and 7) targeted to the first exon of the mouse pcsk9 gene.
# After seven days post-administration, blood samples were drawn from the subjects. Briefly, 500 μL of blood was collected after euthanasia via cardiac puncture using 2 ml syringes and 25G needles, transferred to microcentrifuge tubes, incubated at room temperature for 1 hour, and centrifuged at 1500 g for 15 minutes to separate the cellular fraction from serum. Serum fraction (200 μL) was transferred to a new tube and stored at −80C until further analysis.
# Serum levels of the pcsk9 protein in the mice were measured 7 days after administration. Results are shown in Table 23 for the first experiment and Table 24 for the second experiment. Briefly, a mouse Pcsk9 ELISA kit (Biolegend) was used to determine Pcsk9 in each serum sample following manufacturer's instructions. All serum samples were assayed in triplicate and results were expressed as percentage in Pcsk9 levels compared with Pcsk9 levels of PBS-treated mice.
# [6] = DNA LNP with 43.17 % moles of the compound
# [7] = DNA LNP with 50 % moles of the compound
# [8] = LNP with 43.17 % moles of the compound (DOPC 11.96/Chol 43.17/PEG-DMG 1.7, Lipid:DNA 80)
# [9] = LNP with 50 % moles of the compound (DOPC 10/Chol 38.5/PEG-DMG 1.5, Lipid:DNA 80)
# [10] = Table 14 experiment, LNP with 43.17 % moles of the compound (Lipid:RNA 80)
# [11] = Table 14 experiment, LNP with 50 % moles of the compound (Lipid:RNA 80)
# [12] = LNP with 40.8 (40.75) % moles Compound No. 40
# [13] = LNP with 50 % moles Compound No. 40
compound,measurement,setting,value
CCCCC[C@H]1CC[C@H](C(=O)OCC(COC(=O)CCCCCN(CCO)CCCCCC(=O)COC(COC(=O)[C@H]2CC[C@H](CCCCC)CC2)COC(=O)[C@H]2CC[C@H](CCCCC)CC2)COC(=O)[C@H]2CC[C@H](CCCCC)CC2)CC1 [COMPOUND NO. 36],% body weight change,[1]; [6],−4.9%
same,% body weight change,[1]; [7],−6.7%
same,Total Flux,[2]; LNP with 10% DOPC,7.52E+07 p/s
same,Total Flux,[2]; LNP with 10% DSPC,1.23E+08 p/s
same,Mean Luciferase Flux,[2]; [8],7.99E+07 p/s
same,Mean Luciferase Flux,[2]; [9],1.82E+08 p/s
same,RNA delivery potency,"[3]; 0.5 mg/kg fLuciferase mRNA in LNP, BLI at 4 hr",RNA delivery potency increases with increasing number of cyclohexyl-substituted tails
same,Total Flux,"[3]; Example 104, experiment of Table 64, 0.5 mg/kg fLuciferase mRNA intravenous, BLI at 4 hr",3.25E+11 p/s
same,Mean Luciferase Flux,[3]; [10],1.31E+11 p/s
same,Mean Luciferase Flux,[3]; [11],1.19E+11 p/s
CCCCCC(=O)OCC1CCC(COC(=O)C(CCCN(CCO)CCCC(C(=O)OCC2CCC(COC(=O)CCCCC)CC2)C(=O)OCC2CCC(COC(=O)CCCCC)CC2)C(=O)OCC2CCC(COC(=O)CCCCC)CC2)CC1 (stereo not drawn) [COMPOUND NO. 40],% body weight change,"[1]; LNP with 40.75 % moles of the compound, fLuc mRNA 0.5 mg/kg i.v.",−5.5%
same,% body weight change,"[1]; LNP with 50 % moles of the compound, fLuc mRNA 0.5 mg/kg i.v.",−2.0%
same,IL-6 cytokine fold changes in treated mice relative to untreated mice,[4]; [12],0.4 fold
same,INF-G cytokine fold changes in treated mice relative to untreated mice,[4]; [12],1.5 fold
same,MCP-1 cytokine fold changes in treated mice relative to untreated mice,[4]; [12],1.6 fold
same,MIP-1a cytokine fold changes in treated mice relative to untreated mice,[4]; [12],1.4 fold
same,TNF-a cytokine fold changes in treated mice relative to untreated mice,[4]; [12],1.0 fold
same,IL-6 cytokine fold changes in treated mice relative to untreated mice,[4]; [13],0.6 fold
same,INF-G cytokine fold changes in treated mice relative to untreated mice,[4]; [13],2.0 fold
same,MCP-1 cytokine fold changes in treated mice relative to untreated mice,[4]; [13],5.2 fold
same,MIP-1a cytokine fold changes in treated mice relative to untreated mice,[4]; [13],3.8 fold
same,TNF-a cytokine fold changes in treated mice relative to untreated mice,[4]; [13],1.1 fold
same,Mean Luciferase Flux,"[3]; Table 15 experiment, LNP with 40.75 % moles of the compound (Lipid:RNA 80)",2.20E+10 p/s
same,Mean Luciferase Flux,"[3]; Table 15 experiment, LNP with 50 % moles of the compound (Lipid:RNA 80)",1.02E+11 p/s
CCCCC[C@H]1CC[C@H](C(=O)OCC(COC(=O)CCCCCN(CCCO)CCCCCC(=O)COC(COC(=O)[C@H]2CC[C@H](CCCCC)CC2)COC(=O)[C@H]2CC[C@H](CCCCC)CC2)COC(=O)[C@H]2CC[C@H](CCCCC)CC2)CC1 [COMPOUND NO. 37],% body weight change,[1]; [6],−6.0%
same,% body weight change,[1]; [7],−10.7%
same,Total Flux,[2]; LNP with 10% DOPC,7.64E+07 p/s
same,Total Flux,[2]; LNP with 10% DSPC,1.58E+08 p/s
same,Mean Luciferase Flux,[2]; [8],5.80E+07 p/s
same,Mean Luciferase Flux,[2]; [9],1.28E+08 p/s
same,% Pcsk9 compared to control,"[5]; DSPC:DOPC molar ratio 5%:5% in LNP, 0.5 mg/kg, lipid:RNA 80:1",50.4%
same,% Pcsk9 compared to control,"[5]; DSPC:DOPC molar ratio 10%:0% in LNP, 0.5 mg/kg, lipid:RNA 80:1",39.7%
same,% Pcsk9 compared to control,"[5]; LNP dose 0.5 mg/kg, COMPOUND NO. 37:DOPC:Cholesterol:DMG-PEG2000 50:10:38.5:1.5, lipid:RNA 80:1",40.6%
same,% Pcsk9 compared to control,"[5]; LNP dose 1.0 mg/kg, COMPOUND NO. 37:DOPC:Cholesterol:DMG-PEG2000 50:10:38.5:1.5, lipid:RNA 80:1",23.8%
same,Mean Luciferase Flux,[3]; [10],3.49E+11 p/s
same,Mean Luciferase Flux,[3]; [11],3.55E+11 p/s
